Results from PubChem BioAssay (NCI).
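The compound was tested at five concentrations on cells cultured in 96-well plates, with a 48-hour exposure period. Here, GI50 denotes the concentration required for 50% inhibition of growth. TGI denotes the concentration required for complete inhibition of growth.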

Columns and labels:
Test in all cases: inhibition of tumour cell growth, NCI panel, 48 h
A498 renal = system: A498 renal
IGROV1 ovarian = system: IGROV1 ovarian
K-562 leukemia = system: K-562 leukemia
M14 melanoma = system: M14 melanoma
RXF 393 renal = system: RXF 393 renal
SF-268 CNS = system: SF-268 CNS
SNB-75 CNS = system: SNB-75 CNS
TK-10 renal = system: TK-10 renal
UO-31 renal = system: UO-31 renal

| SMILES | GI50 (A498 renal) | TGI (A498 renal) | GI50 (IGROV1 ovarian) | TGI (IGROV1 ovarian) | GI50 (K-562 leukemia) | TGI (K-562 leukemia) | GI50 (M14 melanoma) | TGI (M14 melanoma) | GI50 (RXF 393 renal) | TGI (RXF 393 renal) | GI50 (SF-268 CNS) | TGI (SF-268 CNS) | GI50 (SNB-75 CNS) | TGI (SNB-75 CNS) | GI50 (TK-10 renal) | TGI (TK-10 renal) | GI50 (UO-31 renal) | TGI (UO-31 renal) |
| --- | --- | --- | --- | --- | --- | --- | --- | --- | --- | --- | --- | --- | --- | --- | --- | --- | --- | --- |
| c1cnn2ncc(-c3ccnc(Nc4ccc5c(c4)OCCO5)n3)c2c1 | 0.0492 µM | 0.128 µM | 0.0815 µM | > 25 µM | 0.285 µM | > 25 µM | 0.0699 µM | 0.221 µM | 0.0535 µM | 0.137 µM | 0.0687 µM | 0.311 µM | 0.0671 µM | 0.173 µM | 0.0685 µM | 0.224 µM | 0.0917 µM | > 25 µM |
| CC1OC(c2ccc3c(c2O)C(=O)C2=C(C3=O)C3(O)C(=O)CC(C)(O)CC3(O)C=C2)CC(O)C1O (stereo not given) | – | 34.5 µM | – | 27.9 µM | – | 14.3 µM | – | 30.7 µM | – | 26.8 µM | – | > 60 µM | – | 48.7 µM | – | 28.6 µM | – | 36.9 µM |
| OCc1ccc(N2CCOCC2)cc1Cl | 0.224 µM | 0.926 µM | 6.73 µM | 32.6 µM | > 100 µM | > 100 µM | > 100 µM | > 100 µM | > 79.1 µM | > 100 µM | > 100 µM | > 100 µM | > 100 µM | > 100 µM | 2.94 µM | 11.4 µM | > 100 µM | > 100 µM |
| O=C1/C(=C/c2ccc([N+](=O)[O-])cc2)COc2ccc(O)cc21 | 4.52 µM | > 100 µM | 2 µM | 4.99 µM | 2.28 µM | > 100 µM | 7.78 µM | > 100 µM | 2.45 µM | 17.7 µM | 15.3 µM | > 100 µM | > 100 µM | > 100 µM | 26.2 µM | > 100 µM | 1.45 µM | 3.6 µM |
| COc1ccc(-c2cnoc2-c2cc(OC)c3c(c2)OCCO3)cc1 | 0.0149 µM | 0.164 µM | 0.0924 µM | > 100 µM | < 0.0115 µM | > 100 µM | 0.0274 µM | > 46.8 µM | – | – | 0.127 µM | > 100 µM | 0.0195 µM | 34.4 µM | 16.7 µM | > 100 µM | 0.283 µM | > 100 µM |
| O=C1c2cccc3cccc(c23)C(=O)N1O | – | > 100 µM | – | > 100 µM | – | > 100 µM | – | > 100 µM | – | 68.5 µM | – | > 100 µM | – | 80.2 µM | – | > 100 µM | – | > 100 µM |
| O=C(O)c1ccccc1C(=O)c1ccc2c(c1)Cc1ccccc1-2 | – | > 100 µM | – | > 100 µM | – | > 100 µM | – | > 100 µM | – | > 100 µM | – | > 100 µM | – | > 100 µM | – | > 100 µM | – | > 100 µM |
| CCCCCCCCCCCCCC[n+]1cccc(C(N)=O)c1 | 5.57 µM | 29.2 µM | 0.197 µM | 0.681 µM | 1.88 µM | 6.53 µM | 1.58 µM | 3.6 µM | – | – | 1.66 µM | 4.48 µM | 1.06 µM | 2.57 µM | 0.675 µM | 2.02 µM | 9.42 µM | 26.3 µM |
| COc1ccc(C2=C(N3CCc4ccccc43)C(=O)NC2=O)cc1 | > 16.6 µM | > 25 µM | > 25 µM | > 25 µM | > 17.4 µM | > 25 µM | > 25 µM | > 25 µM | > 25 µM | > 25 µM | > 25 µM | > 25 µM | > 24.1 µM | > 25 µM | > 24.2 µM | > 25 µM | 9.88 µM | > 25 µM |
| Clc1ccc2c(c1)N(c1ncnc3ccc(-c4cnc5[nH]ncc5c4)cc13)CC2 | – | – | 0.11 µM | 0.554 µM | – | – | 0.869 µM | > 100 µM | 0.229 µM | 0.97 µM | 0.538 µM | > 100 µM | 0.0804 µM | 0.517 µM | 0.835 µM | > 100 µM | 0.151 µM | > 100 µM |
| COc1ccc(Nc2nccc(N3CCN(c4c5ccc(Cl)cc5nc5ccc(OC)cc45)CC3)n2)cc1 | 2.4 µM | 31 µM | 42.4 µM | > 100 µM | 3.06 µM | > 100 µM | 33 µM | > 100 µM | 1.78 µM | 6.8 µM | 11.8 µM | > 100 µM | 5.61 µM | 46.7 µM | 11.5 µM | > 100 µM | 8.26 µM | > 100 µM |
| COc1ccc(C(=O)c2nc3ccccc3n2CC(=O)c2ccc(Cl)cc2)cc1 | 4.07 µM | 39.4 µM | 6.09 µM | > 100 µM | 0.585 µM | > 100 µM | 2.27 µM | > 100 µM | 2.6 µM | > 24.6 µM | 5.98 µM | > 100 µM | 2.75 µM | > 100 µM | 4.02 µM | > 100 µM | 7.04 µM | > 100 µM |
| C/C1=C\CC[C@@](C)(O)[C@@H]2C[C@H](CC/C(C)=C/CC1)C1(CC1)C(=O)O2 | – | – | 28.1 µM | > 100 µM | 13.6 µM | 46.6 µM | 32.7 µM | 91.6 µM | > 100 µM | > 100 µM | 81.7 µM | > 100 µM | 30.8 µM | > 100 µM | 29.6 µM | 96.5 µM | 46.5 µM | > 100 µM |
| Cc1cc(C)n(C2=NS(=O)(=O)c3ccccc3N2C)n1 | – | > 100 µM | – | > 100 µM | – | > 100 µM | – | > 100 µM | – | > 100 µM | – | > 100 µM | – | – | – | > 100 µM | – | > 100 µM |
| Cc1cc2c(cc1Cl)S/C(=C/C(=O)O)C(Nc1cccc3nsnc13)=NS2(=O)=O | > 100 µM | > 100 µM | > 49.9 µM | > 78.3 µM | 70.1 µM | > 100 µM | > 47 µM | > 60.5 µM | > 52.7 µM | > 68.5 µM | 49.2 µM | > 84.4 µM | > 100 µM | > 100 µM | > 58 µM | > 72.5 µM | > 51.1 µM | > 79.2 µM |
| Cc1ccc(NC(=O)/C(Cc2cc(=O)oc3cc(O)ccc23)=N\NC(=O)C[N+](C)(C)C)cc1C | – | > 100 µM | – | > 100 µM | – | > 100 µM | – | > 100 µM | – | > 100 µM | – | > 100 µM | – | > 100 µM | – | > 100 µM | – | > 100 µM |
| Cc1ccc(NC(=O)/C(Cc2nc3ccc([N+](=O)[O-])cc3[nH]c2=O)=N\NC(=O)C[n+]2ccccc2)c(C)c1 | – | – | – | > 100 µM | – | – | – | > 100 µM | – | 73.1 µM | – | > 100 µM | – | > 100 µM | – | 64.4 µM | – | 41.1 µM |
| CCOC(=O)N1CCN(CCCCCOc2ccccc2C2CCCCC2)CC1 | 13.5 µM | 26.9 µM | 10.4 µM | 23.1 µM | 1.97 µM | 10.9 µM | 2.98 µM | 11 µM | – | – | 15.3 µM | 35.1 µM | 10.7 µM | 23 µM | 7.99 µM | 21.7 µM | – | – |
| Cc1cccc(N=Nc2ccc(N=Nc3c(O)ccc4ccccc34)cc2C)c1 | – | – | – | > 100 µM | – | > 100 µM | – | > 100 µM | – | > 100 µM | – | > 100 µM | – | 37.8 µM | – | > 100 µM | – | > 100 µM |
| CC1c2ccccc2N=C2SC(=S)N3CCN=C3N21 (stereo not given) | – | – | > 100 µM | > 100 µM | > 100 µM | > 100 µM | > 100 µM | > 100 µM | > 100 µM | > 100 µM | > 100 µM | > 100 µM | > 100 µM | > 100 µM | > 100 µM | > 100 µM | > 100 µM | > 100 µM |
| O=C(/C=C/c1cccc(O)c1)c1cccc(-n2cc(-c3ccc4ccccc4c3)[nH]c2=O)c1 | – | – | 1.33 µM | 2.79 µM | 1.43 µM | 4.88 µM | 1.49 µM | 3.07 µM | 1.41 µM | 3.07 µM | 1.73 µM | 3.55 µM | 1.88 µM | 5.93 µM | 3.45 µM | 8.53 µM | 1.26 µM | 2.64 µM |
| COc1c(O)c(OC)c2oc(-c3ccc(O)cc3)c(OC)c(=O)c2c1O | – | > 100 µM | – | 51.4 µM | – | > 100 µM | – | > 100 µM | – | – | – | 34.1 µM | – | – | – | > 100 µM | – | > 100 µM |
| CC(C)(C)c1ccc(OC2CCO2)cc1 (stereo not given) | – | > 100 µM | – | > 100 µM | – | 39.1 µM | – | > 100 µM | – | – | – | 81.5 µM | – | > 100 µM | – | > 100 µM | – | > 100 µM |
| c1ccc(-c2nc(N3CCCNCC3)c3nc(-c4ccccc4)oc3n2)cc1 | 1.07 µM | 2.3 µM | 1.59 µM | 3.13 µM | – | – | 1.79 µM | 3.4 µM | 1.66 µM | 3.29 µM | 1.76 µM | 3.62 µM | – | – | 1.53 µM | 3 µM | 1.35 µM | 2.71 µM |
| O=C(Cl)C1=C(c2ccccc2)C1c1ccccc1 (stereo not given) | – | > 100 µM | – | > 100 µM | – | > 100 µM | – | > 100 µM | – | > 100 µM | – | > 100 µM | – | > 100 µM | – | > 100 µM | – | – |
